Test results as given in patent US20230172897A1, “METHODS OF TREATING BREAST CANCERS WITH SELECTIVE ANDROGEN RECEPTOR MODULATORS AND ADDITIONAL THERAPEUTIC AGENTS” (VERU, INC., priority 2021, published 2023).
Entries after “also recorded” stand apart in the source; their conditions may differ.

Tests used:
MDA-MB-231-AR cells = assay: Morphology of MDA-MB-231 cells stably transfected with AR; assay type: cell-based; conditions: 3 days
Method: MDA-MB-231 cells were stably transfected with AR using lentivirus. […] Live cells were visualized using a light-microscope and photographed. The cells were imaged at the same magnification and under the same microscopic conditions.
MDA-MB-231 cells were stably transfected with AR using lentivirus and were treated with vehicle or AR agonists at the indicated concentrations. At the end of 3 days of incubation, the cells were imaged under a microscope (40×).

[1] = tested on: MDA-MB-231 breast cancer cells stably transfected with AR; assay: Proliferation (Coulter counter) of MDA-MB-231 cells stably transfected with AR; assay type: cell-based; conditions: 6 days
Method: MDA-MB-231 cells stably transfected with AR using lentivirus were treated with the indicated ligands for 6 days and the number of cells counted using Coulter counter.

ERα, ERβ, GR, or MR = assay: Cross-reactivity with other nuclear hormone receptors (summary); assay type: cell-based, Rat; conditions: agonist and antagonist mode
Method: In order to determine whether SARM compounds of Formulae I-XIV as described hereinaffected other nuclear hormone receptor signaling, the ability of a compound represented by Formula VIII to stimulate (agonist) or inhibit (antagonist) ERα-, ERβ-, GR-, PR-, or MR-mediated transcriptional activation, was analyzed.
Rat GR, MR, PR, ER-α and ER-β were individually cloned into a pCR3.1 vector backbone. Sequencing was performed to verify the absence of any mutations. HEK-293 cells were plated at 90,000 cells per well of a 24 well plate in Dulbecco's Minimal Essential Media supplemented with 5% charcoal-stripped FBS. The cells were transfected using Lipofectamine (Invitrogen, Carlsbad, Calif.) with 0.25 μg GRE-LUC for GR, MR and PR and ERE-LUC for ER-α and ER-β, 0.5 ng CMV-LUC (renilla luciferase) and 12.5-25 ng of the respective expression vector for each receptor. […] Luciferase assays were performed 48 h after transfection. Transcriptional activation values are represented as firefly luciferase normalized to renilla luciferase.

[2] = tested on: MDA-MB-231-AR triple negative breast cancer cells; assay: MDA-MB-231-AR xenograft in nude mice; assay type: in vivo; conditions: for body weight / tumor weights: all doses
Method: MDA-MB-231-AR triple negative breast cancer cells (2 million cells/mouse; MDA-MB-231 cells stably transfected with AR using lentivirus) were mixed with matrigel (1:1) and injected subcutaneously into the flanks of intact female nude mice (n=5/group). When the tumors reached 150-200 mm^3, the animals were separated into two groups, one receiving vehicle and the other receiving 30 mg/kg Formula VIII orally. Tumor volume was measured thrice weekly and % tumor growth inhibition (TGI) was calculated. At the end of 35 days of treatment, the animals were sacrificed, tumors excised, weighed, and collected for various analyses. Blood was collected and serum separated for drug concentration measurement.

AR = molecular target: T1, AR (Homo sapiens, UniProt P10275); assay: AR transactivation (GRE-LUC) in HEK-293 or MDA-MB-231 cells; assay type: cell-based; set-up: expressed in transfected cells; conditions: cells transfected with AR
T1 sequence (P10275 1-920): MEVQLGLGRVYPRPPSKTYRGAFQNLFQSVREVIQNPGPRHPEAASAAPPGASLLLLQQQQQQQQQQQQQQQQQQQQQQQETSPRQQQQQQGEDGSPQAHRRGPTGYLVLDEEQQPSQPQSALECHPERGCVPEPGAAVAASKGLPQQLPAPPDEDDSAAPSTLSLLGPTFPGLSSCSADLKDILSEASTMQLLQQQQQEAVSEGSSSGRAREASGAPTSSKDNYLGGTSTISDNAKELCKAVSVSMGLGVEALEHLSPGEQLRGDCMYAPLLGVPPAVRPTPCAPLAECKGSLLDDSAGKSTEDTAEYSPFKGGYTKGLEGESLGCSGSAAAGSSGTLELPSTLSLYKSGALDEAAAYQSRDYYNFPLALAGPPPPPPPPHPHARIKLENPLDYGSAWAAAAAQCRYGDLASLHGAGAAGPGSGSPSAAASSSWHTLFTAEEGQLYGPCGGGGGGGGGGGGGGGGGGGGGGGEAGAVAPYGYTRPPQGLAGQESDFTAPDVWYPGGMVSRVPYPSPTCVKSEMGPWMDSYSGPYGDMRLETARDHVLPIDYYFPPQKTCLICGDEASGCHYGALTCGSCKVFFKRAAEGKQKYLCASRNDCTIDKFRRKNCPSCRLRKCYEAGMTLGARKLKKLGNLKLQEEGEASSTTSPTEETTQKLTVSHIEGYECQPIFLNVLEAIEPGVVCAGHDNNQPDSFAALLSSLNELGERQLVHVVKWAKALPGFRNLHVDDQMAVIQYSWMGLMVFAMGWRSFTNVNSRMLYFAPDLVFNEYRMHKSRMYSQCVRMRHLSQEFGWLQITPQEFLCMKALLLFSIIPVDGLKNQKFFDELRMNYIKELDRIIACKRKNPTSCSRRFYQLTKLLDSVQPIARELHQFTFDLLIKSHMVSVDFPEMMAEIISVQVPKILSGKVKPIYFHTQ
Method: Though AR transactivation assay was performed in HEK-293 cells, the ability of ligands to function as agonists or antagonists depends on cellular microenvironment. […] The cells were treated 24 h after transfection and luciferase assay performed 48 h after transfection.

[3] = tested on: HCI-007 tumors (ER-positive, PR-positive, HER2-positive, AR-positive); assay: HCI-007 (HCI-7) patient derived xenograft in NSG mice; assay type: in vivo
Method: HCI-007 tumor pieces (1 mm^3) were implanted surgically (one per mouse) under the skin on the flanks of NSG mice. Simultaneously, 17β-estradiol pellet (Innovative Research of America) was implanted surgically under the skin of each mouse. Tumors were allowed to grow and reach approximately 100 mm^3 volume (1*W*W*0.526). […] Tumor volume was measured weekly and represented as % change in tumor volume (FIG. 32). Mice were sacrificed and tumors stored for further analysis.
All animal protocols were approved by The University of Tennessee Health Science Center (UTHSC) Institutional Animal Care and Use Research Committee. Xenograft experiments were performed as previously published (Narayanan et al. (2014) PLoS One 9, e103202). Briefly, 3 million MCF-7 cells were suspended in 0.05 ml MEM+10% FBS and 0.05 ml Matrigel/nude mouse and were injected subcutaneously. Once the tumor size reached 100-200 mm^3, the animals were randomized and treated orally with the indicated drugs formulated in DMSO:PEG-300 (15:85). HCI-7, HCI-9, and HCI-13 PDXs were gifts kindly donated by Dr. Alana Welm (Huntsman Cancer Institute, Salt Lake City, Utah). […] Tumor volume was measured twice weekly for MCF-7 xenograft and once or twice weekly for HCI PDXs. At the end of the study, animals were sacrificed and tumors were excised, weighed, and stored for various analyses.
From the several PDXs available, three AR-positive PDXs were identified, based on gene expression profile. […] The enzalutamide dose was selected based on previous published experiments (Park et al. (2016) Cancer Invest 34, 517-520; Pollock et al. (2016) Nat Chem Biol 12, 795-801) as well as from internal experiments conducted in prostate cancer xenografts and in Hershberger studies.

Compound	morphology of MDA-MB-231-AR cells (more anchorage-dependent phenotype) (MDA-MB-231-AR cells)	proliferation of MDA-MB-231 cells stably transfected with AR [1]	receptor-mediated transactivation of ERα, ERβ, GR, or MR (ERα, ERβ, GR, or MR)	uterus weight ([2]; 30 mg/kg orally)	reduction of tumor weights ([2]; 30 mg/kg orally, 35 days)	toxicity / body weight ([2]; 30 mg/kg orally, 35 days)	tumor growth inhibition (TGI) ([2]; 30 mg/kg orally, 35 days) [%]	body weight [2]	tumor weights [2]	TGI ([2]; all doses tried: 5, 10 mg per kg) [%]	AR function (agonist/antagonist) in transactivation (AR)	TGI ([2]; all doses tried: 5, 10, 30 mg per kg) [%]	HCI-7 tumor weights at end of study ([3]; 10 mg/kg oral)	HCI-7 tumor growth ([3]; Formula IX 10 mg/kg, enzalutamide 20 or 30 mg/kg, oral)
C[C@](O)(COc1ccc(C#N)cc1)C(=O)Nc1ccc(C#N)c(Cl)c1 [Formula VIII, (S)—N-(3-chloro-4-cyanophenyl)-3-(4-cyanophenoxy)-2-hydroxy-2-methylpropanamide]	altered the morphology	inhibited the proliferation	do not stimulate or inhibit	increased	more than 50%	without any associated toxicity or changes in body weight	~75	increase of body weight	reduced	~85	agonists			
C[C@](O)(COc1ccc(C#N)cc1)C(=O)Nc1ccc(C#N)c(C(F)(F)F)c1 [Formula IX, (S)—N-(4-Cyano-3-(trifluoromethyl)phenyl)-3-(4-cyanophenoxy)-2-hydroxy-2-methylpropanamide]	altered the morphology	inhibited the proliferation	do not stimulate or inhibit					increase of body weight	reduced		agonists	~85	significantly smaller	inhibited significantly; also recorded: grew slowly
